Columns and labels:
Format in all cases: functional, cell-based
[1] = Anticancer activity against human […] cells by HTS assay
NCI-H157 = experiment: Anticancer activity against human NCI-H157 cells by HTS assay
NCI-H522 = experiment: Anticancer activity against human NCI-H522 cells by HTS assay
[2] = Anticancer activity against human M4E cells by HTS assay
M14 = experiment: Anticancer activity against human M14 cells by HTS assay
[3] = Anticancer activity against human H460 cells by HTS assay; details: NCI-H460
[4] = Anticancer activity against human NCI-H1944 cells by HTS assay
[5] = Anticancer activity against human H1299 cells by HTS assay; details: NCI-H1299
[6] = Anticancer activity against human Calu1 cells by HTS assay; details: Calu-1
[7] = Anticancer activity against human SKBR cells by HTS assay
HOP-62 = experiment: Anticancer activity against human HOP62 cells by HTS assay
NCI-H1792 = experiment: Anticancer activity against human NCI-H1792 cells by HTS assay
A549 = experiment: Anticancer activity against human A549 cells by HTS assay
HeLa = experiment: Anticancer activity against human HeLa cells by HTS assay
[8] = Anticancer activity against human 292G cells by HTS assay
[9] = Anticancer activity against human LOXIMVI cells by HTS assay; details: LOX IMVI

Compound | IC50 [1] | IC50 (NCI-H157) | IC50 (NCI-H522) | IC50 [2] | IC50 (M14) | IC50 [3] | IC50 [4] | IC50 [5] | IC50 [6] | IC50 [7] | IC50 (HOP-62) | IC50 (NCI-H1792) | IC50 (A549) | IC50 (HeLa) | IC50 [8] | IC50 [9]
CCCCOc1ccc(-c2oc3cc(O)cc(O)c3c(=O)c2O)cc1O | 18.2 µM | 6.1 µM | 17.7 µM | 17.1 µM | 19.4 µM | 6.84 µM | 5.85 µM | 16 µM | 25.3 µM | 6.72 µM | 12.4 µM | 10.5 µM | 5.44 µM | 9.48 µM | 9.89 µM | 28.8 µM
CCCCOc1cc(O)c2c(=O)c(OCCCC)c(-c3ccc(O)c(O)c3)oc2c1 | 8.92 µM | 5.92 µM | > 50 µM | 11.2 µM | 3.47 µM | 3.05 µM | 1.17 µM | 5.05 µM | 5.46 µM | 4.58 µM | 4.68 µM | 6.03 µM | 1.13 µM | 6.09 µM | 8.75 µM | 2.55 µM
CCCOc1cc(O)c2c(=O)c(OCCC)c(-c3ccc(OCCC)c(O)c3)oc2c1 | > 50 µM | > 50 µM | > 50 µM | 48.2 µM | 34 µM | 28.8 µM | 4.75 µM | 22.8 µM | > 50 µM | 12 µM | 36 µM | > 50 µM | 18.6 µM | 12.9 µM | > 50 µM | > 50 µM
O=c1c(O)c(-c2ccc(O)c(O)c2)oc2cc(O)cc(O)c12 [QUERCETIN] | 16.9 µM | 6 µM | 5.77 µM | 21.7 µM | 12.8 µM | 9.62 µM | 10.2 µM | 13.6 µM | 23.6 µM | 16.7 µM | 7.52 µM | 3.85 µM | 6.2 µM | 3.56 µM | > 50 µM | 4.65 µM
CCOc1ccc(-c2oc3cc(O)cc(O)c3c(=O)c2O)cc1O | 2.85 µM | 0.67 µM | 22.1 µM | 6.18 µM | 0.94 µM | 1.03 µM | 1.78 µM | 1.77 µM | 1.5 µM | 3.19 µM | 4.45 µM | 1 µM | 1.24 µM | 1.2 µM | 4.11 µM | 1.14 µM
